Experimental data: patent US20260263429A1, “INHIBITORS OF CA 2+/CALMODULIN-DEPENDENT PROTEIN KINASE II (CAMKII) THAT DO NOT INHIBIT LONG-TERM POTENTIATION (LTP) INDUCTION AND THERAPEUTIC USES THEREOF” (The Regents of the University of Colorado, A Body Corporate, priority 2023, published 2026)
Read-outs that look alike come from different tables or passages of the source. Each block holds one compound with its values, some of them ahead of it.

Experiments:
purified CaMKIIα [1] = biological target: T1, purified CaMKIIα (Homo sapiens, UniProt Q9UQM7); assay: In vitro kinase reactions with purified CaMKIIα (GluA1 S831, T286, GluN2B S1303 phosphorylation); type: biochemical; design: made in house; host or cells: baculovirus/Sf9 (CaMKIIα); BL21 bacteria (CaM); settings: GST-GluA1 S831 phosphorylation, 30° C., half-maximal response, four experiments; read-out: Km value of ATP (to activate CaMKII)
Protocol: (§1) In a series of exemplary methods, an in vitro kinase assay was used where purified CaMKIIα is incubated at 30° C. with GST-GluA1 alongside ATP. CaMKIIα normally phosphorylates S831 on the GluA1 subunit and this phosphorylation can be measured as a readout of CaMKIIα enzymatic activity (see e.g., FIG. 8B). […] In another exemplary method, binding of purified CaMKIIα to immobilized GST-GluN2B-c was induced by Ca^2+/CaM in the presence of a vehicle (none), 4 mM ADP or with […] AS105. […] At the same time, two exemplary methods were performed to observe ionomycin or chemical LTP (cLTP) induced co-localization of CaMKII and GluN2B either in HEK293 cells co-expressing GFP-CaMKII and mCherry-2BC or dissociated rat hippocampal cultures expressing GFP-CaMKII and mCh-PSD95 intrabody. HEK293 cells, incubating with vehicle or 10 μM AS105, were subjected to ionomycin. Hippocampal cultures, also incubating with either vehicle or 10 μM AS105, were treated with a chemical LTP (cLTP) stimulus (e.g., 100 μM glutamate, 10 μM glycine for 45 seconds). Confocal microscopy images were taken before and after each stimulus.
Therefore, in another exemplary method, the ability of AS283 to selective inhibit CAMKII enzymatic activity without interfering with its binding to GluN2B was tested. In a first method, in vitro kinase reactions were performed at 30° C. in 1 mM ATP measuring purified CaMKIIα phosphorylation of GST-GluA1 S831 with varying concentrations of AS283 (0.41-10 μM).
(§2) One possible mechanism by which AS283 could enhance GluN2B binding more than ATP is by suppressing CaMKII-mediated phosphorylation of GluN2B at S1303, as this phosphorylation within the CaMKII binding site on GluN2B reduces CaMKII binding.
In vitro phosphorylation assays. CaMKII-mediated phosphorylation of GluA1 S831 was measured by in vitro kinase reaction with purified GST-GluA1 c-terminal tail. Reactions contained 40 nM CaMKII (or water for negative controls), 1 μM GST-GluA1, 50 mM PIPES pH 7.1, 2 mM CaCl2), 10 mM MgCl2, 1 μM calmodulin, 1-4 mM ATP, and 1 PM of okadaic acid. Reactions were done at 30° C. for 20 s; reactions were stopped by adding SDS-loading buffer and incubation in a boiling water bath for 5 min. GST, phospho-S831, CaMKII, phospho-T286, or phospho-S1303 were detected in the samples by immunoblot analysis.
Km and Ki determination. The inhibition constant Ki was calculated using the Cheng-Prusoff equation for competitive inhibition: Ki=IC50/(1+[ATP]/Km).

purified CaMKIIα [2] = biological target: T1, purified CaMKIIα; settings: read-out: previously published Km values of CaMKII for ATP; cited from earlier work
[3] = tested on: CaMKII movement to excitatory synapses; assay: cLTP-induced CaMKII movement to excitatory synapses in the presence of soluble oligomeric Aβ; type: cell-based; settings: 0.5 μM Aβ, 45 minutes prior to cLTP
[4] = tested on: CaMKIIα binding to GST-GluN2B-c; settings: 4 mM ADP or AS105
Protocol: as §1, §2
Bound CaMKII was measured via immunoblot.

Km (purified CaMKIIα [1]): 33.3 µM
Compound: Nc1ncnc2c1ncn2[C@@H]1O[C@H](COP(=O)(O)OP(=O)(O)OP(=O)(O)O)[C@@H](O)[C@H]1O [ATP]
Km (purified CaMKIIα [2]): 8 to 127 µM

Compound: C[C@@H](c1ccc(-c2ccccc2)c(F)c1)c1cc(/N=C(\N)N2CCOCC2)on1 [rimacalib]
rescue of Aβ-blocked cLTP-induced movement of CaMKII to the synapses ([3]; inhibitor 10 μM): rescued

Compound: Nc1ncnc2c1ncn2[C@@H]1O[C@H](COP(=O)(O)OP(=O)(O)O)[C@@H](O)[C@H]1O [ADP]
Ca2+/CaM-induced binding of CaMKIIα to immobilized GST-GluN2B-c versus vehicle (none) [4]: induced binding

Compound: Aβ: Amyloid beta (1-42) peptide purchased from Anaspec, soluble oligomeric preparation
effect of Aβ on cLTP-induced movement of CaMKII to the synapses [3]: blocks cLTP induced movement of CaMKII to the synapses
